Experimental findings from patent US10023592B2, “Bromodomain inhibitors” (Celgene Quanticel Research, Inc., priority 2013, dated 2018) are described below.

The test system of experiment [1] is HL-60, human proleukemia cells. Kind of experiment: Cell-MTS proliferation assay, HL-60. The conditions noted are these: Cell-MTS, 168 hr, class symbols A/B/C. Type of experiment: cell-based. As for the experimental part: (§1) The Cell-MTS assay is a 7-day plate-based colorimetric assay which quantifies the amount of newly generated NADH in the presence or absence of test compound. The NADH level is used for the quantification of cancer cell proliferation.
(§2) Established cancer cell lines with a variety of driving mutations were obtained from American Type Culture Collection (ATCC) and routinely passaged according to ATCC protocols. For routine assay, these cells were seeded at densities which enabled ˜90% confluence after 7 days of culture. Raji, human Burkitts lymphoma cells, (cMYC) were seeded at 15,000 cells per 96-well. HL-60, human proleukemia cells, (NRAS, p16, p53, c-Myc amplified) were seeded at 5,000 cells per 96-well. NCI-H460, human non-small cell lung cancer cells, (KRAS, PIK3CA, STLK11, p16) were seeded at 3,000 cells per 96-well. 24 hr after plating, cells received an 11-point dilution of test compound with final concentration ranges from 100 μM to 2.0 nM. […] At the end of this incubation period, 80 μL of media is removed and 20 μL of CellTiter 96® AQueous Non-Radioactive Cell Proliferation Assay soln (Promega) was added. The cells were incubated until the OD490 was >0.6. IC50 values were calculated using the IDBS XLfit software package and include background subtracted OD490 values and normalization to DMSO controls. Cellular proliferation IC50 values were uploaded and archived using the Chem Biography Platform.

The subject of experiment [2] is Raji, human Burkitts lymphoma cells. Kind of experiment: Cell-MTS proliferation assay, Raji. Type of experiment: cell-based. As to conditions: 168 hr. The procedure:
as §1, §2
On the technique in general: Tetrazolium dyes change colour on reduction, which living cells bring about.

The target in the next experiment is BRD4(BD1) (Homo sapiens (Human), UniProt O60885). The experiment is described as follows: In vitro enzyme inhibition assay (BRD4 AlphaScreen). Type of experiment: binding. Put shortly:
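AlphaScreen proximity readout, using streptavidin donor and Ni-chelate acceptor beads at 5 μg/mL final, monitors biotin-H4 tetraacetylated peptide interaction with purified His-tagged BRD4.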

Setting [3] is: Homo sapiens, Raji, Cell-MTS, class symbols A/B/C.
The mark [4] stands for this setting: Homo sapiens, Raji, Cell-MTS proliferation.
Where [5] appears, read: in vitro enzyme inhibition assay.
[6] abbreviates: Homo sapiens, Cell-MTS proliferation, Raji cells.

As usually defined, the IC50 is the concentration that gives 50% inhibition. A high value points to weaker potency in that assay.

As for `CN(C(=O)OC(C)(C)C)c1cccc(-c2cn(C)c(=O)c3ccccc23)c1` [Example 31, tert-butyl N-methyl-N-[3-(2-methyl-1-oxoisoquinolin-4-yl)phenyl]carbamate], the half-inhibitory concentration (IC50) lay within 500 to 5000 nM in experiment [1] (Homo sapiens, HL-60); 500 to 5000 nM in experiment [2] (setting [3]); 500 to 5000 nM against BRD4(BD1) (class symbols A/B/C).
In the case of `Cn1cc(-c2cc(NS(C)(=O)=O)c(F)cc2F)c2ccccc2c1=O` [Example 35, N-[2,4-difluoro-5-(2-methyl-1-oxoisoquinolin-4-yl)phenyl]methanesulfonamide], the IC50 fell in the range of 500 to 5000 nM in experiment [1] (Homo sapiens, HL-60); 500 to 5000 nM in experiment [2] (setting [3]); 500 to 5000 nM at BRD4(BD1) (class symbols A/B/C).
Consider `Cc1ccc(NS(C)(=O)=O)cc1-c1cn(C)c(=O)c2ccccc12` [Example 39, N-[4-methyl-3-(2-methyl-1-oxoisoquinolin-4-yl)phenyl]methanesulfonamide], for which the IC50 in experiment [1] (Homo sapiens, HL-60) is below 500 nM; in experiment [2] (setting [3]), 500 to 5000 nM; against BRD4(BD1) (class symbols A/B/C) it was below 500 nM.
With `Cn1cc(-c2cccc(S(N)(=O)=O)c2)c2cc(F)ccc2c1=O` [Example 48, 3-(6-fluoro-2-methyl-1-oxoisoquinolin-4-yl) benzenesulfonamide], the IC50 in experiment [1] lay within 500 to 5000 nM; in experiment [2] (Cell-MTS, class symbols A/B/C) it was 500 to 5000 nM; against BRD4(BD1) (class symbols A/B/C) it was 500 to 5000 nM.
As for `Cc1ccc(-c2cn(C)c(=O)c3ccccc23)cc1NS(C)(=O)=O` [Example 17, N-[2-methyl-5-(2-methyl-1-oxoisoquinolin-4-yl)phenyl] methanesulfonamide], the IC50 in experiment [1] (Homo sapiens, HL-60) is below 500 nM; in experiment [2] (setting [3]), 500 to 5000 nM; at BRD4(BD1) (class symbols A/B/C) it was below 500 nM.
On to `CCS(=O)(=O)c1ccc(O[C@H]2CC[C@H](O)CC2)c(-c2cn(C)c(=O)c3cc(F)ccc23)c1` [Example 189, 4-[5-ethylsulfonyl-2-(trans-4-hydroxycyclohexyl)oxyphenyl]-7-fluoro-2-methylisoquinolin-1-one], for which the IC50 (in experiment [2] (setting [4]); on BRD4(BD1) (setting [5])) was below 500 nM in each case.
Turning to `CCNS(=O)(=O)c1cccc(-c2cn(C)c(=O)c3ccc(F)cc23)c1` [Example 49, N-ethyl-3-(6-fluoro-2-methyl-1-oxoisoquinolin-4-yl) benzenesulfonamide], the IC50 in experiment [1] lay in the range of 500 to 5000 nM; in experiment [2] (Cell-MTS, class symbols A/B/C) it was 500 to 5000 nM.
Turning to `CCC1Cc2cc(S(C)(=O)=O)cc(-c3cn(C)c(=O)c4ccccc34)c2O1` (stereo not drawn) [Example 494, 4-(2-ethyl-5-methylsulfonyl-2,3-dihydro-1-benzofuran-7-yl)-2-methylisoquinolin-1-one], the IC50 in experiment [2] (setting [6]) is 500 to 5000 nM; at BRD4(BD1) (setting [5]) it was below 500 nM.
Consider `CCS(=O)(=O)Nc1cccc(-c2cn(C)c(=O)c3cnccc23)c1` [Example 52, N-[3-(2-methyl-1-oxo-2,7-naphthyridin-4-yl)phenyl] ethanesulfonamide], for which the IC50 fell in the range of 500 to 5000 nM in experiment [1] (Homo sapiens, HL-60); 500 to 5000 nM in experiment [2] (setting [3]); 500 to 5000 nM at BRD4(BD1) (class symbols A/B/C).
Regarding `CCNS(=O)(=O)c1cccc(-c2cn(C)c(=O)c3cc(F)ccc23)c1` [Example 59, N-ethyl-3-(7-fluoro-2-methyl-1-oxoisoquinolin-4-yl) benzenesulfonamide], the 50% inhibitory concentration (IC50) lay in the range of 500 to 5000 nM in experiment [1]; 500 to 5000 nM in experiment [2] (Cell-MTS, class symbols A/B/C); 500 to 5000 nM at BRD4(BD1) (class symbols A/B/C).
Take `COc1ccc(-c2cn(C)c(=O)c3ccccc23)cc1S(=O)(=O)NCc1ccccc1` [Example 15, N-benzyl-2-methoxy-5-(2-methyl-1-oxoisoquinolin-4-yl)benzenesulfonamide]: the IC50 is 500 to 5000 nM in experiment [1] (Homo sapiens, HL-60); below 500 nM in experiment [2] (setting [3]); 500 to 5000 nM against BRD4(BD1) (class symbols A/B/C).
Consider `Cn1cc(-c2cc(S(C)(=O)=O)ccc2OCC2CC2)c2cc(F)ccc2c1=O` [Example 90, 4-[2-(cyclopropylmethoxy)-5-methylsulfonylphenyl]-6-fluoro-2-methylisoquinolin-1-one], for which the IC50 is below 500 nM in experiment [1] (Homo sapiens, HL-60); below 500 nM in experiment [2] (setting [3]); below 500 nM against BRD4(BD1) (class symbols A/B/C).
As for `COc1ccc(-c2cn(C)c(=O)c3ccccc23)cc1NS(C)(=O)=O` [Example 30, N-[2-methoxy-5-(2-methyl-1-oxoisoquinolin-4-yl)phenyl]methanesulfonamide], the IC50 was below 500 nM in experiment [1] (Homo sapiens, HL-60); 500 to 5000 nM in experiment [2] (setting [3]); below 500 nM at BRD4(BD1) (class symbols A/B/C).
For the compound `Cn1cc(-c2cc(NS(C)(=O)=O)ccc2F)c2ccccc2c1=O` [Example 34, N-[4-fluoro-3-(2-methyl-1-oxoisoquinolin-4-yl)phenyl] methanesulfonamide], the IC50 in experiment [1] (Homo sapiens, HL-60) is below 500 nM; in experiment [2] (setting [3]) it was below 500 nM; against BRD4(BD1) (class symbols A/B/C), below 500 nM.
In the case of `Cn1cc(-c2cccc(NS(C)(=O)=O)c2)ccc1=O` [Example 94, N-[3-(1-methyl-6-oxopyridin-3-yl)phenyl]methanesulfonamide], the IC50 in experiment [1] (Homo sapiens, HL-60) is above 5000 nM; in experiment [2] (setting [3]), below 500 nM; on BRD4(BD1) (class symbols A/B/C), 500 to 5000 nM.
Consider `Cn1cc(-c2cccc(NS(C)(=O)=O)c2)c2ccc(F)cc2c1=O` [Example 58, N-[3-(7-fluoro-2-methyl-1-oxoisoquinolin-4-yl)phenyl]methanesulfonamide], for which the IC50 in experiment [1] (Homo sapiens, HL-60) is below 500 nM; in experiment [2] (setting [3]), 500 to 5000 nM; against BRD4(BD1) (class symbols A/B/C), below 500 nM.
For `Cn1cc(-c2cc(F)cc(NS(C)(=O)=O)c2)c2ccccc2c1=O` [Example 36, N-[3-fluoro-5-(2-methyl-1-oxoisoquinolin-4-yl)phenyl] methanesulfonamide], the IC50 in experiment [1] (Homo sapiens, HL-60) was in the range of 500 to 5000 nM; in experiment [2] (setting [3]), 500 to 5000 nM; against BRD4(BD1) (class symbols A/B/C), 500 to 5000 nM.
On to `Cn1cc(-c2cccc(NS(C)(=O)=O)c2)c2cc(F)ccc2c1=O` [Example 47, N-[3-(6-fluoro-2-methyl-1-oxoisoquinolin-4-yl)phenyl]methanesulfonamide], for which the 50% inhibitory concentration (IC50) was below 500 nM in experiment [1] (Homo sapiens, HL-60); below 500 nM in experiment [2] (setting [3]); below 500 nM at BRD4(BD1) (class symbols A/B/C).
With `Cn1cc(-c2ccc3c(c2)NC(=O)C3)c2ccccc2c1=O` [Example 20, 2-methyl-4-(2-oxo-1,3-dihydroindol-6-yl) isoquinolin-1-one], the IC50 in experiment [1] (Homo sapiens, HL-60) was below 500 nM; in experiment [2] (setting [3]), below 500 nM; against BRD4(BD1) (class symbols A/B/C) it was above 5000 nM.
On to `Cn1cc(-c2cccc(S(N)(=O)=O)c2)c2ccc(F)cc2c1=O` [Example 61, 3-(7-fluoro-2-methhyl-1-oxoisoquinolin-4-yl) benzenesulfonamide], for which the IC50 in experiment [1] (Homo sapiens, HL-60) lay within 500 to 5000 nM; in experiment [2] (setting [3]) it was 500 to 5000 nM.
`Cn1cc(-c2cc(S(C)(=O)=O)ccc2OCC2CC2)c2c(c1=O)CCC2` [Example 504, 4-[2-(cyclopropylmethoxy)-5-methylsulfonylphenyl]-2-methyl-6,7-dihydro-5H-cyclopenta[c]pyridin-1-one]: the IC50 (in experiment [2] (setting [6]); against BRD4(BD1) (setting [5])) was below 500 nM in each case.
`CCS(=O)(=O)Nc1cc2c(c(-c3cc(C)c(=O)n(C)c3)c1)OC(C1CC1)C2` (stereo not drawn) [Example 496, N-[2-cyclopropyl-7-(1,5-dimethyl-6-oxopyridin-3-yl)-2,3-dihydro-1-benzofuran-5-yl]ethanesulfonamide]: the IC50 (in experiment [2] (setting [6]); against BRD4(BD1) (setting [5])) was below 500 nM throughout.
On to `CCCCc1cnc(NS(=O)(=O)CC)nc1-c1cc(C(C)C)c(=O)n(C)c1` [Example 512, N-[5-butyl-4-(1-methyl-6-oxo-5-propan-2-ylpyridin-3-yl)pyrimidin-2-yl] ethanesulfonamide], for which the IC50 (in experiment [2] (setting [6]); on BRD4(BD1) (setting [5])) was below 500 nM in each case.
Take `CCS(=O)(=O)c1ccc(O[C@H]2CC[C@H](O)CC2)c(-c2cn(C)c(=O)c3ccc(F)cc23)c1` [Example 188, 4-[5-ethylsulfonyl-2-(trans-4-hydroxycyclohexyl)oxyphenyl]-6-fluoro-2-methylisoquinolin-1-one]: the IC50 (in experiment [2] (setting [4]); against BRD4(BD1) (setting [5])) was below 500 nM throughout.
In the case of `Cn1cc(-c2nc(CS(C)(=O)=O)ncc2Oc2ccc(F)cc2F)c2ccccc2c1=O` [Example 148, 4-[5-(2,4-difluorophenoxy)-2-(methylsulfonylmethyl)pyrimidin-4-yl]-2-methylisoquinolin-1-one], the half-maximal inhibitory concentration (IC50) was above 5000 nM in experiment [2] (setting [4]) and below 500 nM against BRD4(BD1) (setting [5]).
Turning to `CCS(=O)(=O)Nc1ncc(Oc2ccc(F)cc2F)c(-c2cc(C)c(=O)n(C(C)C)c2)n1` [Example 509, N-[5-(2,4-difluorophenoxy)-4-(5-methyl-6-oxo-1-propan-2-ylpyridin-3-yl)pyrimidin-2-yl]ethanesulfonamide], the IC50 (in experiment [2] (setting [6]); against BRD4(BD1) (setting [5])) was below 500 nM throughout.
Turning to `CCS(=O)(=O)c1ccc(OCC2CC2)c(-c2cc(OCC(F)(F)F)c(=O)n(C)c2)c1` [Example 288, 5-[2-(cyclopropylmethoxy)-5-ethylsulfonylphenyl]-1-methyl-3-(2,2,2-trifluoroethoxy)pyridin-2-one], the IC50 was 500 to 5000 nM in experiment [2] (setting [4]) and below 500 nM against BRD4(BD1) (setting [5]).
Turning to `[2H]C([2H])([2H])n1cc(-c2cc(S(=O)(=O)CC)ccc2OCC2CC2)c(C)cc1=O` [Example 457, 5-[2-(cyclopropylmethoxy)-5-ethylsulfonylphenyl]-1-(^2H3)methyl-4-methylpyridin-2-one], the IC50 (in experiment [2] (setting [6]); against BRD4(BD1) (setting [5])) was below 500 nM each time.
